This data set is described as follows: Screening of CHG solubility in hydrophobic vehicles after vacuum-stripping water. The format is physicochemical. On the procedure: General Method for Vacuum-Stripping Water from CHG Solutions. A 25 g sample of CHG/water solution (20 wt. CHG) was added to 45 g of the hydrophobic monoacylglyceride of interest in a 200 mL round bottom flask. The flask was put in a 60° C. oil bath and stirred with a magnetic stir bar. Vacuum (less than 3.3 kilopascal (25 Torr)) was pulled until bubbling stopped and the weight had closely approached the theoretical value of 50 grams—usually 30-90 minutes. […] In those cases, after nearly all the water was removed, additional hydrophobic monoacylglyceride was added to bring the final weight to 50 grams.
Screening tests were conducted to determine the solubility of CHG in a variety of hydrophobic vehicles. Samples were prepared by mixing CHG (20 wt. % solution in water, obtained from Xttrium Laboratories Inc., Chicago, Ill.) with the vehicle and vacuum stripping in accordance with the General Method for Vacuum-Stripping Water from CHG Solutions. The resulting concentration of CHG and residual water were determined. Also, the final state of the solution was qualitatively evaluated to determine whether the mixture was transparent and apparently homogenous, or clearly inhomogeneous.

[1] abbreviates: after vacuum stripping of water from CHG/vehicle mixture.

Consider `CCCCCCCC(=O)OCC(O)CO` (stereo not drawn) [Glyceryl monocaprylate], for which the “Experimental Solubility with CHG” value is reported as “Yes”. Besides, the “Final State” value (CHG 20 wt. %, 23-60° C.) is listed as “Homogeneous”.

With `CC(C)CCCCCCCCCCCCCCC(=O)OCC(O)CO` (stereo not drawn) [Glyceryl monoisostearate], the “Experimental Solubility with CHG” value is given as “Yes”. The “Final State” value (CHG 10 wt. %, 23-60° C.) was “Homogeneous”. For the same molecule, the “Final State” value (CHG 16 wt. %, 23-60° C.) is on record as “Homogeneous”. Under “CHG 20 wt. %, 60° C.”, the “Final State” value is “Homogeneous”.

Take `CCCCCCCCCCCC(=O)OCC(O)CO` (stereo not drawn) [Glyceryl monolaurate]: the “Experimental Solubility with CHG” value is reported as “Yes”. Moreover, the “Final State” value (CHG 20 wt. %, 75° C.) is recorded as “Homogeneous”. For the same molecule, under setting [1], the “Water wt. % (residual water)” value worked out at 0.7% wt. %.

As for `CCCCCCCC/C=C\CCCCCCCC(=O)OCC(O)CO` (stereo not drawn) [Glyceryl monooleate], the “Experimental Solubility with CHG” value was “Yes”. The “Final State” value (CHG 10 wt. %, 23-60° C.) is recorded as “Homogeneous”. For the same molecule, the “Water wt. % (residual water)” value under setting [1] is 0.3% wt. %.

With `CCCCCCCCCCCCCCCCCC(=O)OCC(O)CO` (stereo not drawn) [Glyceryl monostearate], the “Experimental Solubility with CHG” value is “Yes”. Under “CHG 10 wt. %, 80° C.”, the “Final State” value was “Homogeneous”. Also, the “Water wt. % (residual water)” value under setting [1] was found to be 0.2% wt. %.

Polyglycerol-2-Triisostearate: the “Experimental Solubility with CHG” value is reported as “No”. Further, under “CHG 10 wt. %, 23-60° C.”, the “Final State” value is on record as “Inhomogeneous”. Under setting [1], the “CHG wt. % (resulting concentration of CHG in the vehicle)” value stood at 10% wt. %.

On to Trigyceryl diisostearate, for which the “Experimental Solubility with CHG” value was “No”. Also, the “Final State” value (CHG 1 wt. %, 23-60° C.) is on record as “Inhomogeneous”. Further, for the setting “CHG 10 wt. %, 23-60° C.”, the “Final State” value is listed as “Inhomogeneous”.

For the origin of these results see US20150238444A1, “CHLORHEXIDINE GLUCONATE SOLUBILIZED IN A HYDROPHOBIC MONOACYLGLYCERIDE” (3M INNOVATIVE PROPERTIES COMPANY, priority 2012, published 2015).
